Data from US5409934A, “Xanthine derivatives” (priority 1990, dated 1995).

How the values were obtained:
[1] = target: PDE (V) (Sus scrofa, UniProt A0A287B475); assay: Inhibition of phosphodiesterase PDE V (cGMP-specific), boronate column method; type: biochemical, porcine; settings: 37° C., pH 7.5; read-out: Inhibition of PDE expressed as IC50, PDE (V)
Protocol: The latter were separated by a cGMP-affinity column. The resolved PDEs were separately rechromatographed on a 1 ml Mono Q column. cGMP-selective PDE (PDE V) was obtained from porcine lung using chromatography on DEAE-cellulose and Mono Q columns; a calmodulin-affinity column was used to remove residual PDE I activity. PDEV This isoenzyme had high affinity for cGMP. […] PDE activity was assayed by the boronate column method as previously described (Reeves et al., 1987). The enzymes were assayed by incubation at 37° C. for 4-30 min in 50 mM Tris, 5 mM MgCl2, pH 7.5 with ^3 H-labelled cyclic nucleotide (4×105 disintegrations min^-1) and ^14 C-labelled nucleotide 5'-monophosphate (3×10^3 disintegrations min^-1). The assay was stopped by boiling, and the ^3 H-labelled 5'-monophosphate product separated from substrate on boronate columns. […] The column was extensively washed with the same buffer, and the 5'-nucleotide eluted with 6mL of 0.25M acetic acid.

[2] = target: PDE (IV); assay: Inhibition of phosphodiesterase PDE IV (cAMP-specific), boronate column method; type: biochemical, guinea-pig; settings: cAMP as substrate, 37° C., pH 7.5; read-out: Inhibition of PDE expressed as IC50, PDE (IV)
Protocol: (§1) The Ca^2+ /calmodulin-stimulated PDE (PDE I, see Table 1 and Beavo and Reifsynder (1990) for nomenclature) was prepared from bovine cardiac ventricle. Following chromatography on a Mono Q column, the fractions showing stimulation of PDE activity by CA^2+ and calmodulin were pooled and further purified on a calmodulin-affinity column. […] Initial chromatography on a 20 ml Mono Q column resolved PDE III from a peak that contained both PDE II and PDE IV. The latter were separated by a cGMP-affinity column. The resolved PDEs were separately rechromatographed on a 1 ml Mono Q column. cGMP-selective PDE (PDE V) was obtained from porcine lung using chromatography on DEAE-cellulose and Mono Q columns; a calmodulin-affinity column was used to remove residual PDE I activity.
PDE activity was assayed by the boronate column method as previously described (Reeves et al., 1987). The enzymes were assayed by incubation at 37° C. for 4-30 min in 50 mM Tris, 5 mM MgCl2, pH 7.5 with ^3 H-labelled cyclic nucleotide (4×105 disintegrations min^-1) and ^14 C-labelled nucleotide 5'-monophosphate (3×10^3 disintegrations min^-1). The assay was stopped by boiling, and the ^3 H-labelled 5'-monophosphate product separated from substrate on boronate columns. The reaction mixture was diluted with 0.5 mL 100 mM HEPES [N-(2-hydroxyethyl)piperazine-N ^1 -2-ethanesulfonic acid], 100 mM NaCl, pH 8.5, and applied to the column. The column was extensively washed with the same buffer, and the 5'-nucleotide eluted with 6mL of 0.25M acetic acid.

[3] = tested on: blood eosinophilia; assay: Sephadex induced blood eosinophilia in the rat; type: in vivo, Male Charles River Sprague Dawley rats; settings: 30 min before each Sephadex injection, n = 6
Protocol: Induction of blood eosinonhilia and the effects of drugs.
Male Charles River Sprague Dawley rats weighing between 270 to 400 g were used.
The method used was a modification of that described by Laycock et al (Int. Arch. Appl. Immunol, (1986). 81, 363).
Sephadex G200, particle size 40 to 120 micron, was suspended in isotonic saline at 0.5 mg/ml, and stored for 48 h at 4° C. 1 ml of the suspension was given intravenously to rats on days 0, 2 and 5. The test compound was given before the Sephadex on each occasion, with a contact time expected to give maximum activity at the time of the Sephadex administration. Blood was taken from the tail vein of the rats on day 7 for the determination of total and differential leucocyte counts.
A control group of at least 6 animals was included each time a compound was evaluated. The control group received Sephadex and the vehicle without test compound. The results in the drug treated animals were compared with the control group.
[…] of blood, taken from the tail vein of the rats, were added to 10 ml of Isoton II and, within 30rain, Zapoglobin (3 drops) was added, to lyse the erythrocytes. Five minutes later the total cell count was determined using a Coulter Counter Model DN. […] A minimum of 400 cells were counted on each slide.
Probability values were calculated using the Student's t test. […]

[4] = tested on: cGMP-stimulated PDE (PDE II); assay: Kinetic properties of phosphodiesterase isoenzyme II; type: biochemical, guinea-pig; settings: substrate of PDE II; enzyme displayed positive cooperativity
Protocol: as §1, with “Following” for “The Ca^2+ /calmodulin-stimulated PDE (PDE I, see Table 1 and Beavo and Reifsynder (1990) for nomenclature) was prepared from bovine cardiac ventricle. Following”
(§2) The assay was stopped by boiling, and the ^3 H-labelled 5'-monophosphate product separated from substrate on boronate columns. The reaction mixture was diluted with 0.5 mL 100 mM HEPES [N-(2-hydroxyethyl)piperazine-N ^1 -2-ethanesulfonic acid], 100 mM NaCl, pH 8.5, and applied to the column. The column was extensively washed with the same buffer, and the 5'-nucleotide eluted with 6mL of 0.25M acetic acid.

[5] = tested on: cAMP-specific PDE (PDE IV); assay: Kinetic properties of phosphodiesterase isoenzyme IV; type: biochemical, guinea-pig; settings: substrate of PDE IV, class symbol
Protocol: as §1, with “Following” for “The Ca^2+ /calmodulin-stimulated PDE (PDE I, see Table 1 and Beavo and Reifsynder (1990) for nomenclature) was prepared from bovine cardiac ventricle. Following”
as §2

[6] = tested on: cGMP-specific PDE (PDE V); assay: Kinetic properties of phosphodiesterase isoenzyme V; type: biochemical, porcine; settings: substrate of PDE V
Protocol: as §1, with “Following” for “The Ca^2+ /calmodulin-stimulated PDE (PDE I, see Table 1 and Beavo and Reifsynder (1990) for nomenclature) was prepared from bovine cardiac ventricle. Following”
PDEV This isoenzyme had high affinity for cGMP.
as §2

[7] = tested on: Ca^2+ /calmodulin-stimulated PDE (PDE I); assay: Kinetic properties of phosphodiesterase isoenzyme I; type: biochemical, bovine; settings: substrate of PDE I
Protocol: as §1, with “Following” for “The Ca^2+ /calmodulin-stimulated PDE (PDE I, see Table 1 and Beavo and Reifsynder (1990) for nomenclature) was prepared from bovine cardiac ventricle. Following”
as §2

[8] = tested on: cGMP-inhibited PDE (PDE III); assay: Kinetic properties of phosphodiesterase isoenzyme III; type: biochemical, guinea-pig; settings: substrate of PDE III
Protocol: as §1, with “Following” for “The Ca^2+ /calmodulin-stimulated PDE (PDE I, see Table 1 and Beavo and Reifsynder (1990) for nomenclature) was prepared from bovine cardiac ventricle. Following”
as §2

SMILES	IC50 [1] [µM]	IC50 [2] [µM]	further results
Nc1nc2c(c(=O)n(CC3CC3)c(=O)n2CC2CC2)n1S(=O)(=O)c1ccccc1 [Example 1, 8-Amino-7-benzenesulphonyl-1,3-di(cyclopropylmethyl)xanthine]	4	3	–
COc1ccc(S(=O)(=O)n2c(N)nc3c2c(=O)n(CC2CC2)c(=O)n3CC2CC2)cc1 [Example 2, 8-Amino-1,3-di(cyclopropylmethyl)-7-(4-methoxybenzenesulphonyl)xanthine]	0.4	3	Eosinophilia, % of Control Mean ± SEM ([3]; 20 mg/kg orally, *p < 0.05): 62 ± 7 % of Control; Eosinophilia, % of Control Mean ± SEM ([3]; 50 mg/kg orally, **p < 0.01): 51 ± 7 % of Control
COc1ccc(S(=O)(=O)n2c(N)nc3c2c(=O)n(CC2CC2)c(=O)n3CC2CC2)cc1OC [Example 3, 8-Amino-1,3-di-(cyclopropylmethyl)-7-(3,4-dimethoxy-benzenesulphonyl)xanthine]	0.2	4	–
COc1ccc(S(=O)(=O)n2c(Cl)nc3c2c(=O)n(CC2CC2)c(=O)n3CC2CC2)cc1 [Example 7, 8-Chloro-1,3-di(cyclopropylmethyl)-7-(4-methoxybenzenesulphonyl)xanthine]	> 100	11	–
Nc1nc2c(c(=O)n(CC3CC3)c(=O)n2CC2CC2)n1S(=O)(=O)c1ccc(Cl)cc1 [Example 9, 8-Amino-1,3-di(cylcopropylmethyl)-7-(4-chlorobenzenesulphonyl)xanthine]	–	4	–
COc1ccc(Cn2c(N(S(=O)(=O)c3ccccc3)S(=O)(=O)c3ccccc3)nc3c2c(=O)n(CC2CC2)c(=O)n3CC2CC2)cc1 [Example 23, 1,3-Di(cyclopropylmethyl)-8-di(benzenesulphonyl)amino-7-(4-methoxy-benzyl)xanthine]	7	> 100	–
COc1ccc(S(=O)(=O)Nc2nc3c(c(=O)n(CC4CC4)c(=O)n3CC3CC3)n2Cc2cc(OC)c(OC)c(OC)c2)cc1 [Example 25, 1,3-Di(cyclopropylmethyl)-8-(4-methoxybenzenesulphonamido)-7-(3,4,5-trimethoxybenzyl)xanthine]	–	> 100	–
Nc1nc2c(ncn2[C@@H]2O[C@@H]3COP(=O)(O)O[C@H]3[C@H]2O)c(=O)[nH]1 [cGMP]	–	–	Km [4]: 14 µM; Km [5]: > 100 µM; Km [6]: 1 µM; Km [7]: 5 µM; Km [8]: 0.1 µM
